Patent publication US20060135906A1, “Iontophoretic device and method for administering immune response-enhancing agents and compositions” (priority 2004, published 2006)

Tested on: 57BL/6 mice
Assay: Antibody titers (IgG1, IgG2) in mice given Mtb72F vaccine plus MPL adjuvant
Conditions: for antibody titer of IgG1 / antibody titer of IgG2: Mtb72F 10 μg injected, compared with no MPL administered
[1] = day 43, MPL administered iontophoretically (transcutaneous)
[2] = day 43, MPL by intracutaneous injection (MPL-AF or MPL-SE, 20 μg)

monophosphoryl lipid A [MPL]
immune response-enhancing effects (MPL administered iontophoretically, compared with intracutaneous injection): significant immune response-enhancing effects equivalent to those obtained by intracutaneous injection
antibody titer results, iontophoretic delivery compared with intracutaneous injection (day 43, IgG1 and IgG2): nearly identical
antibody titer of IgG1 [1]: significantly higher
antibody titer of IgG2 [1]: significantly higher
antibody titer of IgG1 [2]: significantly higher
antibody titer of IgG2 [2]: significantly higher
